Laboratory results reported in patent publication US4786755A, “Diphenic acid monoamides” (Warner-Lambert Company, priority 1986, dated 1988).

Each compound was assayed against T1, leukotriene receptor (Cavia porcellus, UniProt Q2NNR5) (assay: Binding of ^3 H-Leukotriene D4 to Guinea Pig Lung Membranes (RBL)). Details: ^3 H-LTD4, guinea pig lung membranes; read-out: IC50 RBL1.
T1 construct: 20 mg original tissue wet weight of guinea pig lung membranes; tissue Kuiper Rabbit Farm, Gary, IN (animals); host or cells: guinea pig lung, crude membranes
T1 sequence (Q2NNR5 1-340): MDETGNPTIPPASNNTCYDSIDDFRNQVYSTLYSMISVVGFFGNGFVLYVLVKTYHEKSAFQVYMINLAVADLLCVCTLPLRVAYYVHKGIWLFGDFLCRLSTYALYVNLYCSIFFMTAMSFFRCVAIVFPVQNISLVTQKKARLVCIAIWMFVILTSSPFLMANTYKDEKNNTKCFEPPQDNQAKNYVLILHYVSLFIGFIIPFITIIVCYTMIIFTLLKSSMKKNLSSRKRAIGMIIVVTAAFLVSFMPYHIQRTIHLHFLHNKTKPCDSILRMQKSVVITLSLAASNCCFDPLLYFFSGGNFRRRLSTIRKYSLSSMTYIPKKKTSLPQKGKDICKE
Procedure: Additionally, the activity, of the compounds having the Formula I of the present invention is determined by the well known leukotriene receptor binding assay that is described by R. F. Bruns, W. J. Thomsen and T. A. Pugsley in Life Sciences, 33, 645 (1983) or the Herxheimer in vivo antiallergy test described in H. Herxheimer, J. Physiol. (London), Vol. 177, p. 251 (1952).
Binding of ^3 H-Leukotriene D4 to Guinea Pig Lung Membranes (RBL)
[14,15-^3 H]leukotriene D4 (^3 H-LTD4) (25 Ci/mmol and 40 Ci/mmol) is purchased from New England Nuclear. Unlabeled LTC4 is a gift of Ono Pharmaceuticals (Japan). LTC4, LTD4, and LTE4 are purchased as methyl esters from Paesel GmbH (Frankfurt, W. Germany). Concentrations of the Paesel leukotrienes are calculated from their absorbance at 280 nm. Leukotriene esters are saponified overnight under N2 in 3.3% potassium carbonate at room temperature. Tritiated leukotrienes are stored as received from New England Nuclear at -20° C. Ono LTC4 (5 μg/ml is stored at -60° C. in phosphate buffer pH 6.8. Saponified Paesel leukotrienes are stored at -60° C. in 3.3% potassium carbonate (pH 9.0-9.5). Aliquots of leukotrienes are taken from stock solutions immediately after thawing, after which the stock solutions are immediately refrozen. 2-Amino-2-(hydroxymethyl)-1,3-propanediol (Tris) is Sigma pH 7.7 pre-set crystals, and dimethylsulfoxide is Aldrich Gold Label.
Preparation of crude lung membranes
Two pairs of lungs (1.3 g) from freshly sacrificed 300 g male guinea pigs (older animals gave substantially lower binding) from Kuiper Rabbit Farm, Gary, IN are disrupted with a Polytron PT 10 (setting 4) for 30 seconds in 20 ml ice-cold 50 mM Tris adjusted with HCl to pH 7.7 at 25° C. (Tris buffer), filtered through a single layer of gauze to remove connective tissue, and centrifuged at 50,000 xg for ten min. The pellet is resuspended by homogenization with a Polytron in 20 ml Tris buffer, centrifuged at 50,000 xg for ten min., resuspended, incubated at 37° C. for 30 minutes, and centrifuged again. The final pellet is resuspended in Tris buffer and either used fresh or stored at -70° C.
All incubations are in triplicate for 60 minutes at 25° C. in 12×75 mm polystyrene tubes containing 1 ml Tris buffer with 20 mg original tissue wet weight of guinea pig lung membranes, 0.2 nM ^3 H-LTD4 (6,000-11,000 cpm), 10 mM MgCl2, and 1% dimethylsulfoxide. Leukotrienes are diluted in Tris buffer. All other test compounds are dissolved at 10 mM in dimethylsulfoxide on the same day as the experiment, and diluted in dimethylsulfoxide to 100× the final incubation concentration. Control incubations receive an equal volume (10 μl) of dimethylsulfoxide; the resulting concentration of dimethylsulfoxide had no effect on binding. ^3 H-LTD4 is diluted to 2 nM in Tris buffer. The membrane suspension (20 mg/0.89 ml) contains sufficient MgCl2 to give 10 mM final concentration in the incubation. […] All additions are performed at 0° C. Immediately after the last addition, the incubation is initiated by agitating the rack of tubes on a vortex mixer and warming to 25° C. in a water bath. Tubes are vortexed at least once more during the incubation to ensure that the membranes remained suspended. Incubations are terminated after 60 minutes by filtering under reduced pressure through 25 mm Whatman GF/B filters followed by rapid washing three times with 4 ml of ice-cold Tris buffer. Filters are added to scintillation vials with 8 ml Formula 947 (New England Nuclear), left overnight, shaken, and the radioactivity counted in a scintillation counter (efficiency 40%). Nonspecific binding, defined as binding of ^3 H-LTD4 in the presence of 100 nM LTC4, is 300-500 cpm for all lots of ^3 H-LTD4. Binding to the filters in the absence of tissue is about 100 cpm, and is not affected by unlabeled LTC4. Specific binding, defined as total binding minus nonspecific binding, varied considerably from lot to lot of ^3 H-LTD4. […]

SMILES | IC50
O=C(O)c1ccccc1-c1ccccc1C(=O)Nc1ccc(CCCc2ccc(Cl)c(Cl)c2)cc1 [Example 1, [1,1'-Biphenyl]-2-carboxylic acid, 2'-[[[4-[3-(3,4-dichlorophenyl)propyl]phenyl]amino]carbonyl]-] | 1 µM
O=C(O)c1ccccc1-c1ccccc1C(=O)Nc1ccc(OCCCc2ccccc2)cc1 [Example 2] | 4.6 µM
O=C(O)c1ccccc1-c1ccccc1C(=O)Nc1ccc(CCc2ccc(Cl)c(Cl)c2)cc1 [Example 3, [1,1'-Biphenyl]-2-carboxylic acid, 2'-[[[4-[2-(3,4-dichlorophenyl)ethyl]phenyl]amino]carbonyl]-] | 4.8 µM
O=C(O)c1ccccc1-c1ccccc1C(=O)Nc1cccc(CCc2ccc(Cl)c(Cl)c2)c1 [Example 4, [1,1'-Biphenyl]-2-carboxylic acid, 2'-[[[3-[2-(3,4-dichlorophenyl)ethyl]phenyl]amino]carbonyl]-] | 8.5 µM
CN(C(=O)c1ccccc1-c1ccccc1C(=O)O)c1ccc(CCc2ccc(Cl)c(Cl)c2)cc1 [Example 5, [1,1'-Biphenyl]-2-carboxylic acid, 2'-[[[4-[2-(3,4-dichlorophenyl)ethyl]phenyl]methylamino]carbonyl]-] | 14.5 µM
COc1ccc(CCc2ccc(NC(=O)c3ccccc3-c3ccccc3C(=O)O)cc2)cc1OC [Example 7, [1,1'-Biphenyl]-2-carboxylic acid, 2'-[[[4-[2-(3,4-dimethoxyphenyl)ethyl]phenyl]amino]carbonyl]-] | 88.7 µM
CN(C(=O)c1ccccc1-c1ccccc1C(=O)O)c1ccc(CCc2ccc(Cl)cc2)cc1 [Example 8] | 28.7 µM
O=C(O)c1ccccc1-c1ccccc1C(=O)Nc1ccc(Cc2ccc(Cl)c(Cl)c2)cc1 [Example 9] | 6.5 µM
O=C(O)c1ccccc1-c1ccccc1C(=O)Nc1ccc(CCc2ccc(Cl)cc2)cc1 [Example 11, [1,1'-Biphenyl]-2-carboxylic acid, 2'-[[4-[2-[(4-chlorophenyl)ethyl]phenyl]amino]carbonyl]-] | 13.5 µM
O=C(O)c1ccccc1-c1ccccc1C(=O)Nc1ccc(CCCCc2ccc(Cl)c(Cl)c2)cc1 [Example 15, [1,1'-Biphenyl]-2-carboxylic acid, 2'-[[[4-[4-(3,4-dichlorophenyl)butyl]phenyl]amino]carbonyl]-] | 4.2 µM
O=C(O)c1ccccc1-c1ccccc1C(=O)Nc1ccc(CCCc2ccccc2)cc1 [Example 16, [1,1'-Biphenyl]-2-carboxylic acid, 2'-[[[4-(3-phenylpropyl]phenyl]amino]carbonyl]-] | 4.3 µM
O=C(O)c1ccccc1-c1ccccc1C(=O)Nc1ccc(CCCCc2ccccc2)cc1 [Example 19, [1,1'-Biphenyl]-2-carboxylic acid, 2'-[[[4-(4-phenylbutyl)phenyl]amino]carbonyl]-] | 6.7 µM
O=C(O)c1ccccc1-c1ccccc1C(=O)Nc1ccc(CCCCCc2ccccc2)cc1 [Example 21, [1,1'-Biphenyl]-2-carboxylic acid, 2'-[[[4-(5-phenylpentyl)phenyl]amino]carbonyl]-] | 2.3 µM
